Source: PMC9238401, “Peptide Conjugates Derived from flg15, Pep13, and PIP1 That Are Active against Plant-Pathogenic Bacteria and Trigger Plant Defense Responses” (Applied and Environmental Microbiology, 2022)
Non-standard residues stand in square brackets, D forms with d. Residues, ends and D or L forms follow the SMILES beside them. *: point of attachment. Butyryl = CCCC(=O)*

Legend:
tobacco leaves = test: Effect of peptide infiltration on tobacco leaves (phytotoxicity); assay type: in vivo; conditions: 100 μL infiltrated into mesophyll, lesion diameter 48 h after infiltration, at least three leaves; ± confidence interval (α = 0.05)
Method: Peptide conjugates were also assayed for their toxicity in tobacco leaves (Fig. 3, Table SC). After 48 h of infiltration, melittin caused a necrotic area of 0.70 and 2.17 cm in diameter at 50 and 250 μM, respectively. The monomers were not phytotoxic at those concentrations; all of them led to lesions of ≤1.2 cm at 250 μM. All peptide conjugates were also less phytotoxic than melittin, causing necrotic lesions between 0.26 and 1.67 cm in diameter at 250 μM. In particular, 15 of the 30 conjugates led to a necrotic area of <1 cm at this concentration. In general, sequences incorporating BP13 were among the most phytotoxic.
Peptide conjugates were evaluated for their effect on infiltration on tobacco leaves as described previously ([41]). Peptide solutions of 50, 150, and 250 μM were infiltrated (100 μL) into the mesophylls of fully expanded tobacco leaves. Infiltrations were carried out in a single leaf, and for each peptide and dose, at least three leaves randomly distributed in different plants were inoculated. Control infiltrations with water (negative control) or melittin (positive control) at the same molar concentration were performed. The appearance of symptoms on the leaves was followed for 48 h after infiltration and measured as lesion diameter.

[1] = tested on: Xanthomonas arboricola pv. pruni CFBP5563; test: In vitro growth inhibition (MIC); assay type: cell-based; conditions: TSB, 25°C, 48 h, OD 600 nm (Bioscreen C), three replicates, experiment repeated twice; MIC given as range
Method: (§1) Peptide conjugates were tested for in vitro growth inhibition of the plant-pathogenic bacteria E. amylovora PMV6076, Xanthomonas arboricola pv. pruni CFBP5563, X. fragariae Xf349-9A, X. axonopodis pv. vesicatoria 2133-2, P. syringae pv. actinidiae Psa3700.1.1, and P. syringae pv. syringae EPS94 (Fig. 1, Table SA). The corresponding monomers (flg15, BP13, Pep13, PIP1, BP16, BP100, BP143, BP387, BP475, and KSL-W) were included for comparison.
(§2) The following plant-pathogenic bacterial strains were used: Erwinia amylovora PMV6076 (Institut National de la Recherche Agronomique, Angers, France), Pseudomonas syringae pv. syringae EPS94 (Institut de Tecnologia Agroalimentària, University of Girona, Spain), Xanthomonas axonopodis pv. vesicatoria 2133-2, X. axonopodis pv. vesicatoria Xav206 (Xav) (D. F. Ritchie, Department of Plant Pathology, North Carolina State University), Pseudomonas syringae pv. actinidiae Psa3700.1.1, Xanthomonas fragariae Xf349-9A (Instituto Valenciano de Investigaciones Agrarias, Valencia, Spain), and Xanthomonas arboricola pv. pruni CFBP5563 (Collection Française de Bactéries Associées aux Plantes, Angers, France). All bacteria except for X. fragariae were stored in Luria Bertani (LB) broth supplemented with glycerol (20%) and maintained at −80°C. For X. fragariae, medium B ([80]) was used instead of LB. E. amylovora, X. arboricola pv. pruni, P. syringae pv. syringae, and P. syringae pv. actinidiae were scraped from the agar medium after growing for 24 h at 25°C, and X. axonopodis pv. vesicatoria and X. fragariae, after growing for 48 h at 25°C. The cell material was suspended in sterile water to obtain a suspension of 10^8 CFU mL^−1.
(§3) Lyophilized peptides were solubilized in sterile Milli-Q water to a final concentration of 1 mM and filter-sterilized through a 0.22-μm pore filter. […] Then, 20 μL of each dilution were mixed in a microtiter plate well with 20 μL of the corresponding suspension of the bacterial indicator, 160 μL of Trypticase soy broth (TSB) (bioMérieux, France) to a total volume of 200 μL. Three replicates for each combination of strain, compound, and concentration were used. Microbial growth was determined by optical density measurement at 600 nm (Bioscreen C; Labsystem, Helsinki, Finland). Microplates were incubated at 25°C with 20 s of shaking before hourly absorbance measurement for 48 h. The experiment was repeated twice. The MIC was taken as the lowest compound concentration with no growth at the end of the experiment.

[2] = tested on: Erwinia amylovora PMV6076; test: In vitro growth inhibition (MIC); assay type: cell-based; conditions: TSB, 25°C, 48 h, OD 600 nm (Bioscreen C), three replicates, experiment repeated twice; MIC = lowest concentration with no growth, given as range
Method: as §1, §2, §3

[3] = tested on: Xanthomonas fragariae Xf349-9A; test: In vitro growth inhibition (MIC); assay type: cell-based; conditions: TSB, 25°C, 48 h, OD 600 nm (Bioscreen C), three replicates, experiment repeated twice; MIC given as range
Method: as §1, §2, §3

[4] = tested on: Pseudomonas syringae pv. actinidiae Psa3700.1.1; test: In vitro growth inhibition (MIC); assay type: cell-based; conditions: TSB, 25°C, 48 h, OD 600 nm (Bioscreen C), three replicates, experiment repeated twice; MIC given as range
Method: as §1, §2, §3

[5] = tested on: Pseudomonas syringae pv. syringae EPS94; test: In vitro growth inhibition (MIC); assay type: cell-based; conditions: TSB, 25°C, 48 h, OD 600 nm (Bioscreen C), three replicates, experiment repeated twice; MIC given as range
Method: as §1, §2, §3

[6] = tested on: Xanthomonas axonopodis pv. vesicatoria 2133-2; conditions: TSB, 25°C, 48 h, OD 600 nm (Bioscreen C), three replicates, experiment repeated twice; MIC given as range
Description: The corresponding monomers (flg15, BP13, Pep13, PIP1, BP16, BP100, BP143, BP387, BP475, and KSL-W) were included for comparison.
as §2, §3

horse erythrocytes = conditions: TRIS buffer pH 7.2, 1 h, 37°C, absorbance 540 nm, relative to melittin 100 μM, ± confidence interval (α = 0.05)
Method: The toxicity of peptide conjugates to eukaryotic cells was determined as the ability to lyse erythrocytes (Table SB).
The hemolytic activity of the compounds was evaluated by determining hemoglobin release from erythrocyte suspensions of horse blood (5% vol/vol) (Oxoid) as previously described ([45]). Blood was centrifuged at 6000g for 5 min, washed three times with TRIS buffer (10 mM TRIS, 150 mM NaCl, pH 7.2) and diluted 10 times. Compounds were solubilized in TRIS buffer at 750, 500, 300, and 100 μM and mixed with horse erythrocytes (1:1 vol/vol). The mixture was incubated with continuous shaking for 1 h at 37°C. Then, the tubes were centrifuged at 3500g for 10 min, 80-μL aliquots of the supernatant were transferred to 100-well microplates (Bioscreen) and diluted with 80 μL water, and the absorbance measured at 540 nm (Bioscreen). […] The percentage of hemolysis (H) was calculated using the equation H = 100 × ([Op − Ob]/[Om − Ob]), where Op is the density for a given compound concentration, Ob is that for the buffer, and Om is that for the melittin positive control.

[7] = HPLC retention time as indicator of relative hydrophobicity; assay type: physicochemical; conditions: chromatographic, Kromasil 100 C18 (4.6 mm × 40 mm, 3 μm), linear gradient 2 to 100% B over 12 min, 1 mL/min; A 0.1% aqueous TFA, B 0.1% TFA in CH3CN; used as indicator of relative hydrophobicity
Method: The parameters related to the structure of the peptide conjugates (sequence, charge, hydrophobic ratio [HR], and HPLC retention time), as well as their physicochemical properties (grand average hydropathicity [GRAVY] and hydrophobic moment [<μH>]) obtained from the online programs ProtParam (Expasy server) and HeliQuest are included in Table 1.
Peptides were analyzed under standard analytical HPLC conditions. Method A: peptides were analyzed with a Dionex liquid chromatography instrument composed of a UV/Vis Dionex UVD170U detector, a P680 Dionex pump, an ASI-100 Dionex automatic injector, and Chromeleon 6.60 software. Detection was performed at a wavelength of 220 nm. Solvent A was 0.1% aqueous trifluoroacetic acid (TFA), and solvent B was 0.1% TFA in CH3CN. Analyses were carried out with a Kromasil 100 C18 (4.6 mm × 40 mm, 3 μm) column with a linear gradient of 2 to 100% B over 7 min at a flow rate of 1 mL/min. Method B: peptides were analyzed with a 1260 Infinity II liquid chromatography instrument (Agilent Technologies) composed of a diode array detector HS, a quaternary pump VL, a 1260 vial sampler, and OpenLab CDS ChemStation software. Analyses were carried out with a Kromasil 100 C18 (4.6 mm × 40 mm, 3 μm) column with a linear gradient of 2 to 100% B over 12 min at a flow rate of 1 mL/min.

Compound	Size of the lesions in infiltrated tobacco leaves at 50 μM (tobacco leaves) [cm]	Size of the lesions in infiltrated tobacco leaves at 150 μM (tobacco leaves) [cm]	Size of the lesions in infiltrated tobacco leaves at 250 μM (tobacco leaves) [cm]	MIC, Xap [1] [µM]	MIC, Ea [2] [µM]	MIC, Xf [3] [µM]	MIC, Psa [4] [µM]	MIC, Pss [5] [µM]	MIC, Xav [6] [µM]	Percent hemolysis at 50 μM (horse erythrocytes) [%]	Percent hemolysis at 150 μM (horse erythrocytes) [%]	Percent hemolysis at 250 μM (horse erythrocytes) [%]	Percent hemolysis at 375 μM (horse erythrocytes) [%]	tR (min), HPLC retention time (method B) [7] [min]
CCCC(=O)NCCCC[C@H](NC(=O)[C@H](CCCCN)NC(=O)[C@H](CC(C)C)NC(=O)[C@@H](NC(=O)[C@H](CCCCN)NC(=O)[C@H](CCCCN)NC(=O)[C@@H](Cc1ccccc1)NC(=O)[C@H](CC(C)C)NC(=O)[C@H](CCCCN)NC(=O)[C@H](CCCCN)NC(C)=O)[C@@H](C)CC)C(=O)N[C@@H](CC(C)C)C(=O)N[C@@H](Cc1ccc(O)cc1)C(=O)NCC(=O)N[C@H](C(=O)N[C@@H](Cc1c[nH]cn1)C(=O)N[C@H](C(=O)N[C@@H](Cc1c[nH]cn1)C(N)=O)[C@@H](C)O)[C@@H](C)CC [BP475-PIP1] (Ac-KKL[dF]KKILKK(Butyryl)LYGIHTH-NH2)	0.47 ± 0.06	1.40 ± 0.00	1.67 ± 0.13	0.8 to 1.6	3.1 to 6.2	1.6 to 3.1	1.6 to 3.1	6.2 to 12.5	3.1 to 6.2	9 ± 1.0	18 ± 1.4	26 ± 2.8	39 ± 2.0	6.28
KKLFKKILKKL-RINSAKDDAAGLQIA-OH [BP16-flg15, peptide conjugate, BP16 at N-terminus, flg15 at C-terminus]	0 ± 0	0.31 ± 0.10	0.30 ± 0.09	25 to 50	> 50	12.5 to 25	12.5 to 25	12.5 to 25	3.1 to 6.2	0 ± 0.3	1 ± 0.1	0 ± 0.6	1 ± 0.5	4.59
RINSAKDDAAGLQIA-KKLFKKILKYL-NH2 [flg15-BP100, peptide conjugate, flg15 at N-terminus, BP100 at C-terminus]	0.46 ± 0.10	0.80 ± 0.22	1.02 ± 0.24	0.8 to 1.6	6.2 to 12.5	6.2 to 12.5	–	12.5 to 25	0.8 to 1.6	48 ± 4.1	52 ± 4.3	63 ± 2.4	66 ± 9.2	6.29
CCCC(=O)NCCCC[C@H](NC(=O)[C@@H](NC(=O)[C@H](CCCCN)NC(=O)[C@H](CCCCN)NC(=O)[C@H](Cc1ccccc1)NC(=O)[C@H](CC(C)C)NC(=O)[C@H](CCCCN)NC(=O)[C@H](CCCCN)NC(C)=O)[C@@H](C)CC)C(=O)N[C@@H](CCCCN)C(=O)N[C@@H](Cc1ccc(O)cc1)C(=O)N[C@@H](CC(C)C)C(N)=O [BP387, reference compound] (Ac-KKLFKKIK(Butyryl)KYL-NH2)	0.32 ± 0.07	0.84 ± 0.10	0.92 ± 0.01	3.1 to 6.2	3.1 to 6.2	1.6 to 3.1	3.1 to 6.2	3.1 to 6.2	1.6 to 3.1	4 ± 0.9	11 ± 5	14 ± 0.5	18 ± 1	–
